The results in this text go back to US9562035B2, “Benzamide derivative useful as FASN inhibitors for the treatment of cancer” (Janssen Pharmaceutica NV, priority 2013, dated 2017).

Each structure is given as a SMILES string.

Assay [1] deals with T1, FASN Keto-reductase Domain (Homo sapiens, UniProt P49327).
T1 construct: 10 μL hFASN enzyme (full length, 300 ng, purified in house) and 360 μM NADPH; made in house
Put plainly: Fatty Acid Synthase Keto-Reductase Domain (FASN KR) Inhibition. Type of assay: biochemical. The following applies: mean where tested more than once; read-out: FASN K-R Domain pIC50 (converted). An outline of the steps: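 Full-length human FASN (300 ng) in 100 mM KH2PO4 pH 7.5 with 360 μM NADPH and 180 mM ethyl acetoacetate (stock); A340 decrease read over 20 min at room temperature.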

Assay [2] relates to A2780 ovarian cells. Put plainly: A2780 Ovarian Cell Proliferation Assay in Lipid Reduced Medium, with Palmitate (control). The assay is classed as cell-based. The following applies: Homo sapiens, A2780; lipid reduced medium, 25 μM palmitate, 96 h, MTT; read-out: Proliferation A2780 with Palmitate pIC50 (converted). Summed up: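 A2780 cells were seeded in RPMI1640 with 10% FCS, then switched next day to medium with 10% lipid-reduced serum. Compound was added with final 25 μM palmitate, 0.2% fatty-acid-free BSA and 0.2% DMSO, and incubated 96 h at 37 °C. Read-out was MTT absorbance at 544 nm; pIC50 = −log(IC50) from curve fit.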

Assay [3] concerns the target T2, hFASN enzyme (full length) (Homo sapiens, UniProt P49327).
T2 construct: 10 μL hFASN enzyme (full length, 300 ng, purified in house); made in house
Put plainly: Fatty Acid Synthase (FASN) Inhibition Scintillation Proximity Assay. Type of assay: biochemical. As to conditions: for IC50: mean where tested more than once, ~ = standard error of pIC50 larger than 0.5; for inhibition at 10 µM: read-out: FASN % Effect @1E−05M. Summed up:
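Purified full-length human FASN (300 ng) incubated 60 min at room temperature with NADPH, [3H]-acetyl-CoA and malonyl-CoA in 100 mM KH2PO4 pH 7.5, 1 mM DTT; compound at 30 μM to 0.01 μM. [3H]-palmitate captured by SPA imaging beads; IC50 from 4-parameter fit, reported as pIC50.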
(In general: SPA uses beads or plates that emit light when radiolabelled molecules are held near them.)

The test system of assay [4] is A2780 ovarian cells. The experiment in a line: A2780 Ovarian Cell Proliferation Assay in Lipid Reduced Medium, without Palmitate. The assay is classed as cell-based. The following applies: Homo sapiens, A2780; lipid reduced medium, without palmitate, 96 h, MTT; read-out: Proliferation A2780 w/o Palmitate pIC50 (converted). Summed up: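 A2780 cells were seeded in 10% FCS medium and switched next day to 10% lipid-reduced serum without palmitate. Compounds at 0.01–30 μM were added with 0.2% DMSO, 0.2% fatty-acid-free BSA and 0.25% ethanol final. After 96 h, MTT absorbance at 544 nm was normalized to plate controls, and IC50/pIC50 came from a 4-parameter logistic fit.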

T2 sequence (P49327 whole entry): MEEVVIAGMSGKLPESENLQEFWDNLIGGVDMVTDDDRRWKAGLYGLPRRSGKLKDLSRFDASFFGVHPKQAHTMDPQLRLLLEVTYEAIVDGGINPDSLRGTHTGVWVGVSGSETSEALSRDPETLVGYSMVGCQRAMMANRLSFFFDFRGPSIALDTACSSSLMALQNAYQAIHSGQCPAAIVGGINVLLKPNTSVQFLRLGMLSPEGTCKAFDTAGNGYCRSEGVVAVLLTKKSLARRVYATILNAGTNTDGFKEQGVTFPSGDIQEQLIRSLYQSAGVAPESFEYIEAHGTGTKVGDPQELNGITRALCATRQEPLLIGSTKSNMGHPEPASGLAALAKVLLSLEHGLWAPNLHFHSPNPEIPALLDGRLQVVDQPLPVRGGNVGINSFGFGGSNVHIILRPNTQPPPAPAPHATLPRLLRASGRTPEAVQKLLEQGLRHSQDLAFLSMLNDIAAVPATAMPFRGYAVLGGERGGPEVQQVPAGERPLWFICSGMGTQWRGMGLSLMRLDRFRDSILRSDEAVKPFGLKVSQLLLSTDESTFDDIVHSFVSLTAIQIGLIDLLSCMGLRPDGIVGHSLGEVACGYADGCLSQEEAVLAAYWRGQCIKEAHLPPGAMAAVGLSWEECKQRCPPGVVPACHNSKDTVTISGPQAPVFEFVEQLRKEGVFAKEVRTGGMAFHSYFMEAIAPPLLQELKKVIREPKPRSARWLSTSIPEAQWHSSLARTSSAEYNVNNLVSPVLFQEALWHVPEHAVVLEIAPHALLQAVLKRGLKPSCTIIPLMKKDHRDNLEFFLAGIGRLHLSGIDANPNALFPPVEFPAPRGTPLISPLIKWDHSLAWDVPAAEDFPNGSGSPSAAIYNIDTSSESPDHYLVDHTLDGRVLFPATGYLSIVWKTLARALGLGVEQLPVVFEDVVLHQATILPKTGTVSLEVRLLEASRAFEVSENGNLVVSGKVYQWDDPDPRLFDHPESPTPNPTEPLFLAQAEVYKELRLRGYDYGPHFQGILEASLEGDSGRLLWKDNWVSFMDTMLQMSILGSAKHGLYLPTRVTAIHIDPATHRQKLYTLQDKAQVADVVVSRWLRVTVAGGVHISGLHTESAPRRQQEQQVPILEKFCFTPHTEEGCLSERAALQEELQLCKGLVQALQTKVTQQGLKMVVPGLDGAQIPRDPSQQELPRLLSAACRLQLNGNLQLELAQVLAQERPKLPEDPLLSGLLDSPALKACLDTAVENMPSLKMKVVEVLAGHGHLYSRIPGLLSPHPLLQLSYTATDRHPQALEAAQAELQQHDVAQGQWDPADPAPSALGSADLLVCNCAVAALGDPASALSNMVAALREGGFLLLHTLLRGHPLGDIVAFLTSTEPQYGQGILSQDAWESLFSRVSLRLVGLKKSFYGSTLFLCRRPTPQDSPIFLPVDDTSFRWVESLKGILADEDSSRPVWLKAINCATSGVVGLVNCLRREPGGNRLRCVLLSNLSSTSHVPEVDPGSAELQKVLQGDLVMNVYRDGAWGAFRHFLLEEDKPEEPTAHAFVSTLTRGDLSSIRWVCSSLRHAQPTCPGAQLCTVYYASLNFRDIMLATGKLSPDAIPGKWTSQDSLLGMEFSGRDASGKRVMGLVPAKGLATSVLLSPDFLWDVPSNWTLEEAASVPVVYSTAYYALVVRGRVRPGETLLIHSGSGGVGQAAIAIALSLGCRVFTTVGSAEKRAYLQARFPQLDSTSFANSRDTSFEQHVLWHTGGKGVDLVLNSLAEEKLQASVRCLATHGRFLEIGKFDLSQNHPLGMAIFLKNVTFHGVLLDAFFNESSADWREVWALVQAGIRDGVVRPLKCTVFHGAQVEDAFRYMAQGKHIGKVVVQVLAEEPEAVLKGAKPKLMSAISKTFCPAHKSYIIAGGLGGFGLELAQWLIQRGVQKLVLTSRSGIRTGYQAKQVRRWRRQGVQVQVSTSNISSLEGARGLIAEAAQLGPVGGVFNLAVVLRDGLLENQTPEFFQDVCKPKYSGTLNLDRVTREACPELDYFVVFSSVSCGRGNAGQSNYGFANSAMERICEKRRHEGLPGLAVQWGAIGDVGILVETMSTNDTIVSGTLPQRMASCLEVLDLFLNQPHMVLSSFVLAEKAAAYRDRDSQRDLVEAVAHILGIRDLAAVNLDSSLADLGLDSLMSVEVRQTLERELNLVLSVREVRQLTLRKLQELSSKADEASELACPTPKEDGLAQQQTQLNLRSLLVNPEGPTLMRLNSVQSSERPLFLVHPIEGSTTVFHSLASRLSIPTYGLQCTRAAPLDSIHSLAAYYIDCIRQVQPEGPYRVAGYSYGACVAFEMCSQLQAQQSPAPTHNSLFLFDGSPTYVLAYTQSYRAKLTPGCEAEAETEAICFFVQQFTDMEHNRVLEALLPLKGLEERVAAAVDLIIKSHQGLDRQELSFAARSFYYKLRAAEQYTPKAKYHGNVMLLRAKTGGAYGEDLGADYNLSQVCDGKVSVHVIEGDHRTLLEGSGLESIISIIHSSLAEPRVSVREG
T1 sequence (P49327 whole entry, the tested form may be a part): as the sequence (P49327 whole entry) above

For `Cc1ccc(C(=O)N2CCC(c3ccc(-c4cnn(C)c4)cc3)CC2)cc1NC(=O)c1ccccc1F` [Compound 117, 2-fluoro-N-(2-methyl-5-(4-(4-(1-methyl-1H-pyrazol-4-yl)phenyl)piperidine-1-carbonyl)phenyl)benzamide], the IC50 in assay [1] was 83.2 nM; in the assay on A2780 ovarian cells [2] it was over 10000 nM; in assay [3], 33.1 nM; in the assay with A2780 ovarian cells [4], 138 nM. For the same compound, the inhibition at 10 µM in assay [3] worked out at 99%.

Consider `Cc1ccc(C(=O)N2CCC(c3ccc(-c4cnn(C)c4)cc3)CC2)cc1NC(=O)c1ccc(N(C)C)cn1` [Compound 119, 5-(dimethylamino)-N-(2-methyl-5-(4-(4-(1-methyl-1H-pyrazol-4-yl)phenyl)piperidine-1-carbonyl)phenyl)picolinamide], for which the IC50 was 141 nM in assay [1], 6460 nM in the assay on A2780 ovarian cells [2], 64.6 nM in assay [3] and 191 nM in the assay on A2780 ovarian cells [4]. For the same compound, in assay [3], the inhibition at 10 µM came out at 98%.

Take `Cc1ccc(C(=O)N2CCC(c3ccc(-c4cnn(C)c4)cc3)CC2)cc1NC(=O)c1ccc(F)c(F)c1F` [Compound 120, 2,3,4-trifluoro-N-(2-methyl-5-(4-(4-(1-methyl-1H-pyrazol-4-yl)phenyl)piperidine-1-carbonyl)phenyl)benzamide]: the IC50 was 97.7 nM in assay [1], about 10000 nM in the assay on A2780 ovarian cells [2], 44.7 nM in assay [3] and 145 nM with A2780 ovarian cells [4]. Also, in assay [3], the inhibition at 10 µM came to 95%.

`Cc1ccc(C(=O)N2CCC(c3ccc(-c4cnn(C)c4)cc3)CC2)cc1NC(=O)c1c(Cl)cccc1Cl` [Compound 121, 2,6-dichloro-N-(2-methyl-5-(4-(4-(1-methyl-1H-pyrazol-4-yl)phenyl)piperidine-1-carbonyl)phenyl)benzamide]: the IC50 was 794 nM in assay [1], 8510 nM in the assay with A2780 ovarian cells [2], 380 nM in assay [3] and 1000 nM in the assay with A2780 ovarian cells [4]. Besides, in assay [3], the inhibition at 10 µM was determined as 87%.

`Cc1ccc(C(=O)N2CCC(c3ccc(-c4cnn(C)c4)cc3)CC2)cc1NC(=O)c1ccc(Cl)cc1Cl` [Compound 122, 2,4-dichloro-N-(2-methyl-5-(4-(4-(1-methyl-1H-pyrazol-4-yl)phenyl)piperidine-1-carbonyl)phenyl)benzamide]: the IC50 in assay [1] was 75.9 nM; with A2780 ovarian cells [2], over 10000 nM; in assay [3] it was 18.6 nM; in the assay on A2780 ovarian cells [4] it was 117 nM. The inhibition at 10 µM in assay [3] was found to be 101%.

`Cc1ccc(C(=O)N2CCC(c3ccc(-c4cnn(C)c4)cc3)CC2)cc1NC(=O)c1ccc(Cl)c(Cl)c1` [Compound 123, 3,4-dichloro-N-(2-methyl-5-(4-(4-(1-methyl-1H-pyrazol-4-yl)phenyl)piperidine-1-carbonyl)phenyl)benzamide]: the IC50 was 77.6 nM in assay [1], 6760 nM with A2780 ovarian cells [2], 53.7 nM in assay [3] and 162 nM in the assay with A2780 ovarian cells [4]. Besides, in assay [3], the inhibition at 10 µM turned out to be 97%.

As for `Cc1ccc(C(=O)N2CCC(c3ccc(-c4cnn(C)c4)cc3)CC2)cc1NC(=O)C1CCN(Cc2ccccc2)CC1` [Compound 124, 1-benzyl-N-(2-methyl-5-(4-(4-(1-methyl-1H-pyrazol-4-yl)phenyl)piperidine-1-carbonyl)phenyl)piperidine-4-carboxamide], the IC50 in assay [1] is 81.3 nM; in the assay with A2780 ovarian cells [2] it was 5370 nM; in assay [3] it was 25.7 nM; in the assay with A2780 ovarian cells [4], 33.9 nM. Also, the inhibition at 10 µM in assay [3] was 105%.

For `Cc1ccc(C(=O)N2CC(c3ccc(-c4cnn(C)c4)cc3)C2)cc1NC(=O)C1CCCCC1` [Compound 125, N-(2-methyl-5-(3-(4-(1-methyl-1H-pyrazol-4-yl)phenyl)azetidine-1-carbonyl)phenyl)cyclohexanecarboxamide], the IC50 in assay [1] is 79.4 nM; with A2780 ovarian cells [2], 4790 nM; in assay [3], 44.7 nM; in the assay with A2780 ovarian cells [4] it was 132 nM. Moreover, the inhibition at 10 µM in assay [3] turned out to be 104%.

Consider `CSc1ccc(C(=O)Nc2cc(C(=O)N3CCC(c4ccc(-c5cnn(C)c5)cc4)CC3)ccc2C)cc1` [Compound 126, N-(2-methyl-5-(4-(4-(1-methyl-1H-pyrazol-4-yl)phenyl)piperidine-1-carbonyl)phenyl)-4-(methylthio)benzamide], for which the IC50 in assay [1] was 32.4 nM; in the assay on A2780 ovarian cells [2], over 10000 nM; in assay [3], 30.2 nM; in the assay on A2780 ovarian cells [4], 26.3 nM. The inhibition at 10 µM in assay [3] was determined as 110%.

Consider `Cc1ccc(F)c(C(=O)Nc2cc(C(=O)N3CCC(c4ccc(-c5cnn(C)c5)cc4)CC3)ccc2C)c1` [Compound 127, 2-fluoro-5-methyl-N-(2-methyl-5-(4-(4-(1-methyl-1H-pyrazol-4-yl)phenyl)piperidine-1-carbonyl)phenyl)benzamide], for which the IC50 in assay [1] was 389 nM; with A2780 ovarian cells [2], 4470 nM; in assay [3], 182 nM; in the assay on A2780 ovarian cells [4], 562 nM. For the same compound, the inhibition at 10 µM in assay [3] is 98%.

Turning to `COc1cc(Cl)cc(C(=O)Nc2cc(C(=O)N3CCC(c4ccc(-c5cnn(C)c5)cc4)CC3)ccc2C)c1` [Compound 128, 3-chloro-5-methoxy-N-(2-methyl-5-(4-(4-(1-methyl-1H-pyrazol-4-yl)phenyl)piperidine-1-carbonyl)phenyl)benzamide], the IC50 in assay [1] is 288 nM; in the assay on A2780 ovarian cells [2], 6170 nM; in assay [3], 257 nM; in the assay with A2780 ovarian cells [4], about 417 nM. In addition, the inhibition at 10 µM in assay [3] is 84%.

As to `Cc1ccc(C(=O)N2CCC(c3ccc(-c4cnn(C)c4)cc3)CC2)cc1NC(=O)c1ccc(C#N)cc1F` [Compound 129, 4-cyano-2-fluoro-N-(2-methyl-5-(4-(4-(1-methyl-1H-pyrazol-4-yl)phenyl)piperidine-1-carbonyl)phenyl)benzamide], the IC50 is 34.7 nM in assay [1], over 10000 nM in the assay with A2780 ovarian cells [2], 22.9 nM in assay [3] and 21.4 nM in the assay with A2780 ovarian cells [4]. In assay [3], the inhibition at 10 µM was 104%.

As for `Cc1ccc(C(=O)N2CCC(c3ccc(-c4cnn(C)c4)cc3)CC2)cc1NC(=O)c1cccs1` [Compound 130, N-(2-methyl-5-(4-(4-(1-methyl-1H-pyrazol-4-yl)phenyl)piperidine-1-carbonyl)phenyl)thiophene-2-carboxamide], the IC50 in assay [1] was 126 nM; in the assay with A2780 ovarian cells [2], over 10000 nM; in assay [3], 47.9 nM; in the assay on A2780 ovarian cells [4] it was about 123 nM. Moreover, in assay [3], the inhibition at 10 µM worked out at 108%.

`Cc1ccc(C(=O)N2CCC(c3ccc(-c4cnn(C)c4)cc3)CC2)cc1NC(=O)c1ccc(F)cc1F` [Compound 131, 2,4-difluoro-N-(2-methyl-5-(4-(4-(1-methyl-1H-pyrazol-4-yl)phenyl)piperidine-1-carbonyl)phenyl)benzamide]: the IC50 in assay [1] is 107 nM; in the assay with A2780 ovarian cells [2], over 6170 nM; in assay [3] it was 51.3 nM; in the assay on A2780 ovarian cells [4], 126 nM. The inhibition at 10 µM in assay [3] came out at 109%.

With `Cc1ccc(C(=O)N2CCC(c3ccc(-c4cnn(C)c4)cc3)CC2)cc1NC(=O)c1ccccc1C(F)(F)F` [Compound 132, N-(2-methyl-5-(4-(4-(1-methyl-1H-pyrazol-4-yl)phenyl)piperidine-1-carbonyl)phenyl)-2-(trifluoromethyl)benzamide], the IC50 in assay [1] is 204 nM; in the assay with A2780 ovarian cells [2] it was over 10000 nM; in assay [3], 120 nM; in the assay on A2780 ovarian cells [4], 339 nM. In addition, the inhibition at 10 µM in assay [3] stood at 97%.

With `Cc1ccc(C(=O)N2CCC(c3ccc(-c4cnn(C)c4)cc3)CC2)cc1NC(=O)c1ccc2c(c1)OCO2` [Compound 133, N-(2-methyl-5-(4-(4-(1-methyl-1H-pyrazol-4-yl)phenyl)piperidine-1-carbonyl)phenyl)benzo[d][1,3]dioxole-5-carboxamide], the IC50 in assay [1] is 74.1 nM; with A2780 ovarian cells [2], over 10000 nM; in assay [3] it was 37.2 nM; in the assay on A2780 ovarian cells [4], 91.2 nM. In addition, in assay [3], the inhibition at 10 µM worked out at 96%.

Regarding `Cc1ccc(C(=O)N2CCC(c3ccc(-c4cnn(C)c4)cc3)CC2)cc1NC(=O)c1ccc(NC2CCC2)nc1` [Compound 134, 6-(cyclobutylamino)-N-(2-methyl-5-(4-(4-(1-methyl-1H-pyrazol-4-yl)phenyl)piperidine-1-carbonyl)phenyl)nicotinamide], the IC50 in assay [1] was 52.5 nM; in the assay with A2780 ovarian cells [2], over 10000 nM; in assay [3], 57.5 nM; in the assay with A2780 ovarian cells [4] it was about 38 nM. Further, in assay [3], the inhibition at 10 µM was found to be 111%.
